Source: patent EP4748903A1, “ULTRAVIOLET ABSORBER, ANTIOXIDANT, ANTI-GLYCATION AGENT, EXTERNAL PREPARATION FOR SKIN, COSMETIC, METHOD FOR PRODUCING COMPOUND, AND COMPOUND” (Meijo University, priority 2023, dated 2025)
Like-named read-outs stand apart in the source and are kept apart here.

Key:
[1] = Time course experiment of ABTS radical scavenging (temporal change in antioxidant activity); format: biochemical; conditions: recorded for 2900 seconds at 25°C, 734 nm; saclipin A 0.60 mM, saclipin B 0.18 mM, ascorbic acid 6 µM, Trolox 6 µM
Procedure: A 7 mM ABTS aqueous solution and a 2.45 mM potassium persulfate aqueous solution were mixed at 25°C for 16 hours in the dark to prepare an ABTS radical solution. The ABTS radical solution was diluted with ethanol such that the absorbance at 734 nm was about 1.0. 50 µL of this diluted ABTS radical solution and 50 µL of the test sample ethanol solution were mixed, and the mixed reactant was held at room temperature for 20 or 40 minutes in the dark, then the absorbance was measured at 734 nm. The final reaction concentration of the sample was adjusted to 0 mM, 0.06 mM, 0.12 mM, 0.18 mM, 0.24 mM, 0.30 mM, 0.60 mM, 1.20 mM, and 1.80 mM. Ascorbic acid and Trolox were used as standard samples. Inhibition rates were calculated using the following equation. Inhibition activity (%) = ((Ab−As)/Ab) × 100 [formula]
Therefore, the temporal change of radical scavenging was measured by a time course experiment. In the time course experiment, the decrease in absorbance after addition of the test sample was recorded continuously for 2900 seconds at 25°C and 734 nm. In the time course experiment, the final reaction concentrations of saclipin A, saclipin B, ascorbic acid, and Trolox were adjusted to 0.60 mM, 0.18 mM, 6 µM, and 6 µM, respectively.

[2] = Measurement of ABTS radical scavenging activity; format: biochemical; conditions: for IC50: ABTS method, room temperature, dark; for β/α value: IC50 after 40 minutes (β) divided by IC50 after 20 minutes (α), ABTS radical scavenging
Procedure: To evaluate the antioxidant activity of saclipin A and saclipin B, 2,2-azino-bis(3-ethylbenzothiazoline-6-sulfonic acid) diammonium salt (ABTS) radical scavenging activity was measured.
The ABTS radical solution was diluted with ethanol such that the absorbance at 734 nm was about 1.0. 50 µL of this diluted ABTS radical solution and 50 µL of the test sample ethanol solution were mixed, and the mixed reactant was held at room temperature for 20 or 40 minutes in the dark, then the absorbance was measured at 734 nm. […] Ascorbic acid and Trolox were used as standard samples. Inhibition rates were calculated using the following equation. Inhibition activity (%) = ((Ab−As)/Ab) × 100 [formula]
Here, Ab and As represent the absorbances of the blank sample and the test sample, respectively.

collagen = assay: Collagen anti-glycation assay kit; format: biochemical; conditions: sample dissolved in DMSO; read-out: IC50 value, inhibition effect on glycation of collagen
Procedure: (§1) To evaluate the anti-glycation activity of saclipin A and saclipin B, the effect on glycation of elastin and collagen was investigated.
(§2) The effect of saclipin on the glycation of elastin and collagen was evaluated using an elastin anti-glycation assay kit (product number: AAS-AGE-K05, Cosmo Bio Co., Ltd.) and a collagen anti-glycation assay kit (product number: AK71, Cosmo Bio Co., Ltd.), respectively. The assay was performed according to the manufacturer's protocol using saclipin A and saclipin B purified from Suizenji-nori. However, since saclipin was not dissolved in the attached aqueous buffer solution, it was dissolved in dimethyl sulfoxide (DMSO) and subjected to an experiment. The final reaction concentration of the sample was adjusted to 0 mM, 0.5 mM, 1.0 mM, 2.0 mM, and 4.0 mM.

elastin = assay: Elastin anti-glycation assay kit; format: biochemical; conditions: for IC50: sample dissolved in DMSO, read-out: IC50 value, inhibition effect on the glycation reaction of elastin
Procedure: as §1, §2

[3] = Photoisomerization by light irradiation, HPLC analysis; format: physicochemical; conditions: for time for which the amount ratio of saclipin A and saclipin B did not change: dark treatment after light irradiation
Procedure: Saclipin A purified from dried Suizenji-nori was dissolved in methanol, ethanol or acetonitrile, and the solution was irradiated with light of 6000 lux under a white fluorescent lamp for 24 hours or longer. Thereafter, HPLC analysis was performed under the following measurement conditions to calculate the amounts of saclipin A and saclipin B, and the isomerization rate of saclipin A was calculated. The chromatogram of the saclipin A solution before light irradiation is shown on the left in Fig. 6, and the chromatogram of the saclipin A solution after light irradiation is shown on the right in Fig. 6.
• Detection wavelength: 320 nm • Column: Inerteil ODS-P 3 µm, 4.6×33 + 4.6×150 mm • Eluent: 50% Acetonitrile (isocratic)

PSVK1 cells = assay: MTT test on human keratinocytes (biocompatibility test); format: cell-based; conditions: compared with 1% ethanol control; for appearance of cells (microphotographs): 10.0 µM; for cytotoxicity (cell viability, MTT): 0.1 to 10.0 µM
Procedure: (§3) In order to examine the cytotoxicity of saclipin A and saclipin B, MTT tests were performed on (1) neonatal human dermal fibroblasts and (2) human keratinocytes.
(§4) The neonatal human dermal fibroblasts (NHDF) were purchased from ATCC. The neonatal human dermal fibroblasts were seeded in 96-well plates at 1×10^4 cells/well. Neonatal human dermal fibroblasts were cultured overnight at 37°C, 5% CO2 using Dulbecco's modified eagle medium (DMEM) in which 10% fetal bovine serum, […], and 10 mM HEPES were added to DMEM. 0.1 µM, 0.36 µM, 1.0 µM, 3.6 µM, and 10.0 µM of saclipin A or saclipin B were added to each cell. As a control, 1% ethanol was added to the cells. Next, 0.5 mg/mL MTT(3-(4,5-dimethylthiazole-2-yl)-2,5-diphenyltetrazolium bromide) was added, and the mixture was cultured for 20 hours at 37°C, 5% CO2. The whole formazan crystals were dissolved in dimethyl sulfoxide (DMSO), and then the absorbance of each sample solution was measured at 540 nm to determine the cell viability.
PSVK1 cells (JCRB1093, JCRB Cell Bank, National Institute of Biomedical Innovation, Health and Nutrition, Japan) were used as human keratinocytes. In this test, the test was carried out in the same manner as in "(1) MTT test on neonatal human dermal fibroblasts" described above except that the cells were cultured using a keratinocyte medium (Thermo Fisher Scientific) supplemented with 0.05 mg/mL bovine pituitary extract, 0.005 µg/mL epidermal growth factor, 100 units/mL penicillin, and 100 µg/mL streptomycin (Gibco).
(§5) The upper part of Fig. 13 is a graph showing the results of cell viability (cell viability, %). The labels on the horizontal axis represent each sample corresponding to each bar graph. For example, the labels "saclipin A" "10.00" represent that the cells were treated with 10.0 µM saclipin A. The vertical axis represents the cell viability when the cell viability of cells treated with 1% ethanol is taken as 100%.

[4] = Absorption spectrum analysis (ultraviolet absorption); format: physicochemical; conditions: methanol solution; for Molar absorption coefficient: at the absorption maximum
Procedure: The obtained dried sample was dissolved in methanol, and subjected to absorption spectrum analysis, high-resolution mass spectrometry, and measurement of ^1H and ^13C-NMR spectra. In each graph of Fig. 3, the horizontal axis represents wavelength (nm), and the vertical axis represents relative absorbance.
The absorption spectra of "saclipin A (Sac A)", "saclipin B (Sac B)", "methyl-esterified saclipin A (Sac A_methyl ester)", and "methyl-esterified saclipin B (Sac B_methyl ester)" were acquired by the method described in "2. Structure determination of saclipin A and saclipin B" described above. In each graph of Fig. 11, the horizontal axis represents wavelength (nm), and the vertical axis represents relative absorbance. The maximum point of saclipin A was 317 nm. The maximum point of methyl-esterified saclipin A was 316 nm. The maximum point of saclipin B was 319 nm. The maximum point of methyl-esterified saclipin B was 319 nm.

[5] = test system: neonatal human dermal fibroblasts (NHDF); assay: MTT test on neonatal human dermal fibroblasts (biocompatibility test); format: cell-based; conditions: compared with 1% ethanol control; for appearance of cells (microphotographs): 10.0 µM; for cytotoxicity (cell viability, MTT): 0.1 to 10.0 µM
Procedure: as §3, §4
as §5, with “Fig. 12” for “Fig. 13”, “viability (%).” for “viability (cell viability, %).”, “to the” for “to each”

[6] = reaction time 20 min, read-out: IC50 value (µM) 20 min
[7] = reaction time 40 min, read-out: IC50 value (µM) 40 min

SMILES | IC50 [2, 6] | IC50 [2, 7] | IC50 (collagen) | IC50 (elastin) | time for which the amount ratio of saclipin A and saclipin B did not change [3] | dissolved saclipin A converted to saclipin B ([3]; methanol, ethanol or acetonitrile, 6000 lux white fluorescent lamp, 24 hours or longer) | appearance of cells (microphotographs) (PSVK1 cells) | Molar absorption coefficient [4] | Absorption maximum [4] | Absorption maximum ([4]; listed as Saclipin A) | appearance of cells (microphotographs) [5] | temporal change of radical scavenging [1] | β/α value [2] | cytotoxicity (cell viability, MTT) (PSVK1 cells) | cytotoxicity (cell viability, MTT) [5] | glycation reaction inhibited (elastin) (elastin; concentration of 4 mM)
O=C1O[C@H]([C@@H](O)CO)C(O)=C1O [Ascorbic acid, reference compound] | 7.9 µM | 7.5 µM | – | – | – | – | – | – | – | – | – | hardly functioned after a radical scavenging reaction occurred immediately after addition | 0.95 | – | – | –
Cc1c(C)c2c(c(C)c1O)CCC(C)(C(=O)O)O2 (centres unmarked) [Trolox, 6-hydroxy-2,5,7,8-tetramethylchroman-2-carboxylic acid, reference compound] | 6.7 µM | 6.7 µM | – | – | – | – | – | – | – | – | – | hardly functioned after a radical scavenging reaction occurred immediately after addition | 1.00 | – | – | –

Now from value to compound, other results behind:

IC50 [2, 6] | IC50 [2, 7] | IC50 (collagen) | IC50 (elastin) | time for which the amount ratio of saclipin A and saclipin B did not change [3] | dissolved saclipin A converted to saclipin B ([3]; methanol, ethanol or acetonitrile, 6000 lux white fluorescent lamp, 24 hours or longer) | appearance of cells (microphotographs) (PSVK1 cells) | Molar absorption coefficient [4] | Absorption maximum [4] | Absorption maximum ([4]; listed as Saclipin A) | appearance of cells (microphotographs) [5] | SMILES | temporal change of radical scavenging [1] | β/α value [2] | cytotoxicity (cell viability, MTT) (PSVK1 cells) | cytotoxicity (cell viability, MTT) [5] | glycation reaction inhibited (elastin) (elastin; concentration of 4 mM)
– | – | 2400 µM | 1500 µM | – | – | – | – | – | – | – | N=C(N)NN [aminoguanidine, reference compound] | – | – | – | – | –
974 µM | 717 µM | 1900 µM | 2500 µM | at least 96 hours | About 90% | no abnormality was observed | 26,454 M^-1cm^-1 | 317 nm | 316 nm | no abnormality was observed | CCC(=O)/C=C/C=C/C=C/C(=O)CCCCCCCC(=O)O [saclipin A, (10E,12E,14E)-9,16-Dioxooctadeca-10,12,14-trienoic acid] | proceeded even after 2900 seconds | 0.78 | not higher than that of 1% ethanol at any concentration | not higher than that of 1% ethanol at any concentration | –
182 µM | 142 µM | 900 µM | – | at least 96 hours | – | no abnormality was observed | 30,555 M^-1cm^-1 | 319 nm | – | no abnormality was observed | CCC(=O)/C=C/C=C\C=C\C(=O)CCCCCCCC(=O)O [saclipin B, (10E,12Z,14E)-9,16-Dioxooctadeca-10,12,14-trienoic acid] | proceeded even after 2900 seconds | 0.74 | not higher than that of 1% ethanol at any concentration | not higher than that of 1% ethanol at any concentration | about 45%
